The results in this text go back to US20240158392A1 (Janssen Biotech, Inc., priority 2021, published 2024).

In general, pIC50 refers to the negative decadic logarithm of the IC50, by convention in mol/L. A lower pIC50 goes with a large IC50. Usually IC50 stands for the concentration that inhibits the measured activity by half.

This assay deals with SIK2 (Homo sapiens, UniProt Q9H0K1). Nature of the assay: SIK2 Enzymatic Assay High Version 2 (High ATP). The format is biochemical. To be noted: for IC50: enzyme 6 nM, 6 mM ATP and 400 μM HDAC5tide (each 2× final concentration), 30 minutes pre-incubation, 2 hours, ADP-Glo Max luminescence, read-out: SIK2 high ATP IC50 (μM) (Test Example 2). A digest of the protocol: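 At room temperature, enzyme (6 nM, 2× final) was preincubated with compound for 30 min, then 6 mM ATP and 400 μM HDAC5tide (both 2× final) were added for 2 h. ADP formed was measured by ADP-Glo Max (2 h reagent, 1 h detection) using luminescence.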
(ADP-Glo first removes unused ATP, then detects ADP through luciferase.)

The structures appear in SMILES notation. pIC50: −log10 of the molar value. Read-outs that look alike come from different tables or passages of the source.

Chain of SIK2 (Q9H0K1 whole entry, species assumed): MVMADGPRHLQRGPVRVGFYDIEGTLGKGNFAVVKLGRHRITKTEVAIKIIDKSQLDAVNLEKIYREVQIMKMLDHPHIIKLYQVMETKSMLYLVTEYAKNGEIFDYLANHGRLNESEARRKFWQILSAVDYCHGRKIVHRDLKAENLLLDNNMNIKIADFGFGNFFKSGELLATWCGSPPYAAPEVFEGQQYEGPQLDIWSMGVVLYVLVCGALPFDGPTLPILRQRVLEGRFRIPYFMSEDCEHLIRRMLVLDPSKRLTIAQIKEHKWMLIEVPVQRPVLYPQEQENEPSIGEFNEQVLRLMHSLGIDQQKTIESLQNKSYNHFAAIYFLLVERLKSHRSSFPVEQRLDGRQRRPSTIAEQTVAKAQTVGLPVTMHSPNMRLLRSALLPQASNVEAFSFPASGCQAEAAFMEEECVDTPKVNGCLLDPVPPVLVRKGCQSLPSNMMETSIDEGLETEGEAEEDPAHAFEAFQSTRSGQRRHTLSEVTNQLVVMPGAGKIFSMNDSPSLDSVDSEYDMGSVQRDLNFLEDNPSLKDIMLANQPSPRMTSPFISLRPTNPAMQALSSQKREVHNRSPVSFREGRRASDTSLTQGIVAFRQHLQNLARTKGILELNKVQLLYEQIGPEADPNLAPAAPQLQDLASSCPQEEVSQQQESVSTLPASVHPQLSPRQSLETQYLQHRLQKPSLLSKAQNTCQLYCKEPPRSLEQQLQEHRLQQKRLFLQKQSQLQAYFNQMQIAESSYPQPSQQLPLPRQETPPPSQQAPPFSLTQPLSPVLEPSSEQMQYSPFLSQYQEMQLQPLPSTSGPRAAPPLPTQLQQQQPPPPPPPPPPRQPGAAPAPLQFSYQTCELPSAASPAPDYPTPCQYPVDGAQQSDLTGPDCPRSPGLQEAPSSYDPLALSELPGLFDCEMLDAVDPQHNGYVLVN

Regarding `Cc1cc(-c2ccn3nc(NC(=O)C4CC4)cc3c2)c(OC[C@H]2CCN2CCF)cn1` [Example 529, N-[5-[5-[[(2R)-1-(2-fluoroethyl)azetidin-2-yl]methoxy]-2-methyl-4-pyridyl]pyrazolo[1,5-a]pyridin-2-yl]cyclopropanecarboxamide], the pIC50 was 9.02. In the case of `CCN1[C@@H]2COC[C@H]1C[C@@H](Oc1cnc(C)cc1-c1ccn3nc(Nc4ccc(C(=O)NC)cn4)cc3c1)C2` [Example 530, 6-[[5-[5-[[(1S,5R)-9-ethyl-3-oxa-9-azabicyclo[3.3.1]nonan-7-yl]oxy]-2-methyl-4-pyridyl]pyrazolo[1,5-a]pyridin-2-yl]amino]-N-methyl-pyridine-3-carboxamide], the pIC50 was 8.63. Same read-out and setting: the result for `CNC(=O)c1ccc(Nc2cc3cc(-c4cc(C)ncc4O[C@H]4C[C@H]5COC[C@@H](C4)N5C(C)C)ccn3n2)nc1` [Example 531, 6-[[5-[5-[[(1S,5R)-9-isopropyl-3-oxa-9-azabicyclo[3.3.1]nonan-7-yl]oxy]-2-methyl-4-pyridyl]pyrazolo[1,5-a]pyridin-2-yl]amino]-N-methyl-pyridine-3-carboxamide] reads 8.84.

`CNC(=O)c1ccc(Nc2cc3cc(-c4cc(C)ncc4O[C@H]4C[C@H]5COC[C@@H](C4)N5CC(C)(C)O)ccn3n2)nc1` [Example 532, 6-[[5-[5-[[(1S,5R)-9-(2-hydroxy-2-methyl-propyl)-3-oxa-9-azabicyclo[3.3.1]nonan-7-yl]oxy]-2-methyl-4-pyridyl]pyrazolo[1,5-a]pyridin-2-yl]amino]-N-methyl-pyridine-3-carboxamide] showed a pIC50 of 7.87.

For the compound `Cc1cc(-c2ccn3nc(Nc4cc(C)nc(C(F)(F)F)n4)cc3c2)c(OCC(C)(C)O)cn1` [Example 537, 2-methyl-1-[[6-methyl-4-[2-[[6-methyl-2-(trifluoromethyl)pyrimidin-4-yl]amino]pyrazolo[1,5-a]pyridin-5-yl]-3-pyridyl]oxy]propan-2-ol], the IC50 came out at 0.0241 µM. On the same count and under the same terms, the value for `Cc1cc(-c2ccn3nc(Nc4cc(C)nc(C)n4)cc3c2)c(OC[C@H]2C[C@H](O)C2)cn1` [Example 538, (1r,3r)-3-(((4-(2-((2,6-dimethylpyrimidin-4-yl)amino)pyrazolo[1,5-a]pyridin-5-yl)-6-methylpyridin-3-yl)oxy)methyl)cyclobutan-1-ol] was 0.0129 µM; that for `Cc1cnc(Nc2cc3cc(-c4cc(C)ncc4OCC(C)(C)O)ccn3n2)cn1` [Example 541, 2-methyl-1-[[6-methyl-4-[2-[(5-methylpyrazin-2-yl)amino]pyrazolo[1,5-a]pyridin-5-yl]-3-pyridyl]oxy]propan-2-ol] was 0.0471 µM. Same read-out and setting: the result for `Cc1cc(-c2ccn3nc(Nc4cc(C)nc(C)n4)cc3c2)c(O[C@H]2C[C@H](N)C2)cn1` [Example 545, 5-(5-((1r,3r)-3-aminocyclobutoxy)-2-methylpyridin-4-yl)-N-(2,6-dimethylpyrimidin-4-yl)pyrazolo[1,5-a]pyridin-2-amine] reads 0.0134 µM; that for `Cc1cc(-c2ccn3nc(Nc4cc(C)nc(C)n4)cc3c2)c(OCC2(C)COC2)cn1` [Example 546, N-(2,6-dimethylpyrimidin-4-yl)-5-[2-methyl-5-[(3-methyloxetan-3-yl)methoxy]-4-pyridyl]pyrazolo[1,5-a]pyridin-2-amine], 0.0239 µM; that for `Cc1cc(-c2ccn3nc(Nc4cc(C)nc(C)n4)cc3c2)c(OC2CCS(=O)(=O)CC2)cn1` [Example 550, N-(2,6-dimethylpyrimidin-4-yl)-5-[5-(1,1-dioxothian-4-yl)oxy-2-methyl-4-pyridyl]pyrazolo[1,5-a]pyridin-2-amine], 0.0055 µM. On the same count and under the same terms, the result for `Cc1cc(-c2ccn3nc(Nc4cc(C)nc(C)n4)cc3c2)c(OC2CCC(S(C)(=O)=O)CC2)cn1` (stereo not shown) [Example 551, N-(2,6-dimethylpyrimidin-4-yl)-5-[2-methyl-5-(4-methylsulfonylcyclohexoxy)-4-pyridyl]pyrazolo[1,5-a]pyridin-2-amine] reads 0.00832 µM; that for `Cc1cc(-c2ccn3nc(Nc4cc(C)nc(C)n4)cc3c2)c(OC2CCC(C#N)CC2)cn1` (stereo not shown) [Example 552, 4-[[4-[2-[(2,6-dimethylpyrimidin-4-yl)amino]pyrazolo[1,5-a]pyridin-5-yl]-6-methyl-3-pyridyl]oxy]cyclohexanecarbonitrile], 0.00378 µM. Regarding `Cc1cc(-c2ccn3nc(Nc4cc(C)nc(C)n4)cc3c2)c(OCc2ccccc2OC(F)F)cn1` [Example 553, 5-[5-[[2-(difluoromethoxy)phenyl]methoxy]-2-methyl-4-pyridyl]-N-(2,6-dimethylpyrimidin-4-yl)pyrazolo[1,5-a]pyridin-2-amine], the IC50 worked out at 0.0101 µM. On the same count and under the same terms, the value for `Cc1cc(-c2ccn3nc(Nc4cc(C)nc(C)n4)cc3c2)c(OC[C@H](C)C(C)(C)O)cn1` [Example 554, (3S)-4-[[4-[2-[(2,6-dimethylpyrimidin-4-yl)amino]pyrazolo[1,5-a]pyridin-5-yl]-6-methyl-3-pyridyl]oxy]-2,3-dimethyl-butan-2-ol] was 0.0275 µM; that for `Cc1cc(-c2ccn3nc(Nc4cc(C)nc(C)n4)cc3c2)c(OCCC(C)(C)O)cn1` [Example 555, 4-[[4-[2-[(2,6-dimethylpyrimidin-4-yl)amino]pyrazolo[1,5-a]pyridin-5-yl]-6-methyl-3-pyridyl]oxy]-2-methyl-butan-2-ol] was 0.00997 µM; that for `Cc1cc(-c2ccn3nc(Nc4cc(C)nc(C)n4)cc3c2)c(O[C@H]2CC[C@@H](C#N)CC2)cn1` [Example 556, (1s,4s)-4-((4-(2-((2,6-dimethylpyrimidin-4-yl)amino)pyrazolo[1,5-a]pyridin-5-yl)-6-methylpyridin-3-yl)oxy)cyclohexane-1-carbonitrile] was 0.0371 µM.

With `Cc1cc(-c2ccn3nc(Nc4cc(C)nc(C)n4)cc3c2)c(OCCN)cn1` [Example 557, 5-[5-(2-aminoethoxy)-2-methyl-4-pyridyl]-N-(2,6-dimethylpyrimidin-4-yl)pyrazolo[1,5-a]pyridin-2-amine], the IC50 worked out at 0.0494 µM.

As to `Cc1cc(-c2ccn3nc(Nc4cc(C)nc(C)n4)cc3c2)c(OC[C@H](O)C2CC2)cn1` [Example 558, (1R)-1-cyclopropyl-2-[[4-[2-[(2,6-dimethylpyrimidin-4-yl)amino]pyrazolo[1,5-a]pyridin-5-yl]-6-methyl-3-pyridyl]oxy]ethanol], the IC50 worked out at 0.0695 µM. For `Cc1cc(-c2ccn3nc(Nc4cc(C)nc(C)n4)cc3c2)c(OC[C@@H](O)C2CC2)cn1` [Example 559, (1S)-1-cyclopropyl-2-[[4-[2-[(2,6-dimethylpyrimidin-4-yl)amino]pyrazolo[1,5-a]pyridin-5-yl]-6-methyl-3-pyridyl]oxy]ethanol], the IC50 was 0.00686 µM. As to `Cc1cc(-c2ccn3nc(Nc4cc(C)nc(C)n4)cc3c2)c(OCC2(C#N)CC2)cn1` [Example 560, 1-[[4-[2-[(2,6-dimethylpyrimidin-4-yl)amino]pyrazolo[1,5-a]pyridin-5-yl]-6-methyl-3-pyridyl]oxymethyl]cyclopropanecarbonitrile], the IC50 worked out at 0.0616 µM. Same read-out and setting: the value for `Cc1cc(-c2ccn3nc(Nc4cc(C)c(=O)n(C5CC5)n4)cc3c2)c(OC[C@@H]2COCCO2)cn1` [Example 561, 2-cyclopropyl-6-[[5-[5-[[(2S)-1,4-dioxan-2-yl]methoxy]-2-methyl-4-pyridyl]pyrazolo[1,5-a]pyridin-2-yl]amino]-4-methyl-pyridazin-3-one] was 0.0619 µM; that for `N#CCN1CC[C@@H](COc2cnc(C#N)cc2-c2ccn3nc(NC(=O)C4CC4)cc3c2)C1` [Example 563, N-[5-[2-cyano-5-[[(3R)-1-(cyanomethyl)pyrrolidin-3-yl]methoxy]-4-pyridyl]pyrazolo[1,5-a]pyridin-2-yl]cyclopropanecarboxamide] was 0.038 µM. Same read-out and setting: the result for `Cn1ccc(Nc2cc3cc(-c4cc(C#N)cnc4OC[C@@H]4CNCCO4)ccn3n2)n1` [Example 564, 5-[2-[(1-methylpyrazol-3-yl)amino]pyrazolo[1,5-a]pyridin-5-yl]-6-[[(2S)-morpholin-2-yl]methoxy]pyridine-3-carbonitrile] reads 0.00339 µM; that for `Cc1cc(-c2ccn3nc(NC(=O)C4CC4)cc3c2)c(OC[C@@H](N)C(F)(F)F)cn1` [Example 570, N-[5-[5-[(2R)-2-amino-3,3,3-trifluoro-propoxy]-2-methyl-4-pyridyl]pyrazolo[1,5-a]pyridin-2-yl]cyclopropanecarboxamide], 0.0943 µM. Consider `Cc1cc(-c2ccn3nc(NC(=O)C4CC4)cc3c2)c(OC[C@@H]2CCCN2C)cn1` [Example 572, N-[5-[2-methyl-5-[[(2S)-1-methylpyrrolidin-2-yl]methoxy]-4-pyridyl]pyrazolo[1,5-a]pyridin-2-yl]cyclopropanecarboxamide], for which the pIC50 is 7.10. Same read-out and setting: the value for `Cc1cc(-c2ccn3nc(NC(=O)C4CC4)cc3c2)c(OC[C@@H]2CCN2CCF)cn1` [Example 573, N-[5-[5-[[(2S)-1-(2-fluoroethyl)azetidin-2-yl]methoxy]-2-methyl-4-pyridyl]pyrazolo[1,5-a]pyridin-2-yl]cyclopropanecarboxamide] was 7.13; that for `Cc1cc(-c2ccn3nc(NC(=O)C4CC4)cc3c2)c(OC[C@H]2CCN2C2CC2)cn1` [Example 574, N-[5-[5-[[(2R)-1-cyclopropylazetidin-2-yl]methoxy]-2-methyl-4-pyridyl]pyrazolo[1,5-a]pyridin-2-yl]cyclopropanecarboxamide] was 7.10. The same measure, in the same setting: the value for `[2H]C([2H])([2H])N1CC[C@H]1COc1cnc(C)cc1-c1ccn2nc(NC(=O)C3CC3)cc2c1` [Example 575, N-[5-[2-methyl-5-[[(2S)-1-(trideuteriomethyl)azetidin-2-yl]methoxy]-4-pyridyl]pyrazolo[1,5-a]pyridin-2-yl]cyclopropanecarboxamide] was 7.15.
